According to patent US10717742B2, “Spiro[3H-indole-3,2′-pyrrolidin]-2(1H)-one compounds and derivatives as MDM2-P53 inhibitors” (Boehringer Ingelheim International GmbH, priority 2015, dated 2020):
One block for each compound: values may come before it.

How the values were obtained:
[1] = biological target: p53-MDM2 interaction (GST-MDM2 protein aa 23-117 / biotinylated p53 wt peptide) (Homo sapiens (Human), UniProt Q00987); experiment: Mdm2-p53 Inhibition AlphaScreen; format: binding; conditions: GST-MDM2 (aa 23-117) / biotinylated p53 wt peptide
[2] = test system: human acute myeloid leukemia (AML) and human prostate tumor xenograft models harboring p53 wild-type; conditions: cited from earlier work
[3] = test system: acute lymphoblastic leukemia (ALL) xenograft models with mixed-lineage leukemia (MLL) rearrangement; conditions: cited from earlier work
[4] = test system: p53 wild-type vs. p53 mutant cell lines; conditions: in vitro, PPTP of the NCI; cited from earlier work
[5] = test system: solid tumor xenograft models; conditions: cited from earlier work

Sequence of p53-MDM2 interaction (GST-MDM2 protein aa 23-117 / biotinylated p53 wt peptide) (Q00987 23-117): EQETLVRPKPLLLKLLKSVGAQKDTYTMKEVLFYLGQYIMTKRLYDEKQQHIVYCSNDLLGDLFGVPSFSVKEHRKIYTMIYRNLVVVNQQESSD

IC50 [1]: 10 nM
SMILES: Cc1c(C(=O)N(C)C)ccn2c3c(nc12)[C@@H]1[C@H](C3)N(CC2CC2)[C@@]2(C(=O)Nc3cc(Cl)ccc32)[C@H]1c1ccnc(Cl)c1F [Ic-29]

IC50 [1]: 10 nM
SMILES: Cc1c(C(=O)N2CCCCC2)ccn2c3c(nc12)[C@@H]1[C@H](C3)N(CC2CC2)[C@@]2(C(=O)Nc3cc(Cl)ccc32)[C@H]1c1ccnc(Cl)c1F [Ic-35]

IC50 [1]: 10 nM
SMILES: Cc1c(C(=O)N2CCOCC2)ccn2c3c(nc12)[C@@H]1[C@H](C3)N(CC2CC2)[C@@]2(C(=O)Nc3cc(Cl)ccc32)[C@H]1c1ccnc(Cl)c1F [Ic-37]

SMILES: CCOc1cc(C(C)(C)C)ccc1C1=N[C@@](C)(c2ccc(Cl)cc2)[C@@](C)(c2ccc(Cl)cc2)N1C(=O)N1CCN(CCCS(C)(=O)=O)CC1 [RG7112]
antiproliferative and proapoptotic activity [2]: antiproliferative and proapoptotic activity

SMILES: CCOc1cc(C(C)(C)C)ccc1C1=N[C@@](C)(c2ccc(Cl)cc2)[C@@](C)(c2ccc(Cl)cc2)N1C(=O)N1CCN(CCCS(C)(=O)=O)CC1 [RG-7112]
efficacy in xenograft models [3]: particularly efficacious | cytotoxic activity, median IC50 [4]: lower median IC50 values for p53 wild-type vs. p53 mutant cell lines | tumor growth inhibition [5]: induced tumor growth inhibition
